According to patent US20250257034A1, “INDOLE DERIVATIVES AS SEROTONERGIC AGENTS USEFUL FOR THE TREATMENT OF DISORDERS RELATED THERETO” (priority 2023, published 2025):
Several values for one entry are separate records, joined by “and”; a condition that tells them apart may be missing. Equal values may be shown once. Read-outs that look alike come from different tables or passages of the source.

Experiments:
[1] = Rat liver microsomes stability; format: in vitro ADME; conditions: Rat liver microsomes; for microsomal CLint at 2 μM / half-life at 2 μM / CLint scaled at 2 μM: male; for microsomal CLint at 2 μM: rat, liver microsomes, read-out: CLint (μL/min/mg protein); for microsomal CLint at 2 μM / half-life at 2 μM: 2 μM compound, 0.5 mg/mL microsomes, 1 mM NADPH; for half-life at 2 μM: 37° C; for CLint scaled at 2 μM: read-out: Scaled-up CLint
How it was run: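 Parent depletion was measured by LC-MS/MS as peak-area ratio to internal standard. Compounds (2 μM) were incubated at 37° C with liver microsomes of each species and 1 mM NADPH, then sampled to 60 min. Intrinsic clearance in μL/min/mg protein derives from the log-linear slope.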

[2] = Pharmacokinetic studies in rat (i.v.); format: in vivo; conditions: rat plasma; for Apparent t1/2 / half-life: estimated from 2 points only; for concentration at 0.25 h / concentration at 1 h / half-life / AUC(0-t) / concentration at 4 h: male, Sprague-Dawley, rat, plasma, iv; for concentration at 0.25 h / concentration at 1 h / concentration at 4 h: read-out: Plasma concentration; for half-life: read-out: Apparent t1/2 (converted); for AUC(0-t): read-out: AUC0-tlast
Protocol: Animals: Male Sprague-Dawley rats (˜225-350 g) from Charles River Labs were acclimatized for a minimum of 5 days prior to start of study procedures. Body weights were recorded on the day of dosing.
Any abnormalities were documented including presence/absence of wet dog shakes/back muscle contractions (WDS/BMC).
Dosing: Formulations were administered intravenously (i.v.) via the tail vein using a 25 G needle connected to a 1 cc syringe.
The Compounds of Formula (I) were freshly prepared at the appropriate concentrations in 5% Tween-80 in saline.
Blood collection time (h): 0.25, 1 and 4.
Volume/time-point: ˜0.25 mL […] (saphenous vein).
Instrumentation: AB Sciex QTRAP 4000 or 6500 MS/MS system equipped with an LC system with a binary pump, a solvent degasser, a thermostatted column compartment and a multiplate autosampler.
Analysis software: Phoenix® WinNonlin® 8.3 (Pharsight, Certara, Mountainview, CA).
Analysis methods: non-compartmental analysis, linear up/log down trapezoidal rule.
PK parameters: t1/2 and AUC0-tlast were be estimated.
Volume/time-point: ˜0.25 mL (saphenous vein).
PK parameters: t1/2 and AUC0-tlast were estimated.

[3] = Mouse liver microsomes stability; format: in vitro ADME; conditions: Mouse liver microsomes; for microsomal CLint at 2 μM / half-life at 2 μM / CLint scaled at 2 μM: male; for microsomal CLint at 2 μM: mouse, liver microsomes, read-out: CLint (μL/min/mg protein); for microsomal CLint at 2 μM / half-life at 2 μM: 2 μM compound, 0.5 mg/mL microsomes, 1 mM NADPH; for half-life at 2 μM: 37° C; for CLint scaled at 2 μM: read-out: Scaled-up CLint
[4] = I-1 1.10 mg/kg i.v., individual rats R04-R06, 1.1 mg/kg
[5] = 1.1 mg/kg, I-1 1.10 mg/kg i.v., Mean ± SD
[6] = 1.1 mg/kg, I-1 1.10 mg/kg i.v., individual rats R04-R06
[7] = I-12 1.2 mg/kg i.v., individual rats R01-R03, 1.2 mg/kg
[8] = 1.2 mg/kg, I-12 1.2 mg/kg i.v., individual rats R01-R03
[9] = I-13 1.14 mg/kg i.v., individual rats R04-R06, 1.14 mg/kg
[10] = 1.14 mg/kg, I-13 1.14 mg/kg i.v., individual rats R04-R06

Question: With `[2H]C([2H])([2H])N(CCc1c[nH]c2ccc(SC)cc12)C([2H])([2H])[2H]` [Compound I-1, N,N-Bis(methyl-d3)-2-(5-(methylthio)-1H-indol-3-yl)ethan-1-amine] as the compound, how does the “Predicted hepatic CL” value [1] read?
Answer: >50.17 mL/min/kg

Question: What about the microsomal CLint at 2 μM [1] of the same compound?
Answer: > 307 µL/min/mg

Question: And the half-life at 2 μM [1]?
Answer: < 4.51 min

Question: And the CLint scaled at 2 μM [1]?
Answer: > 550 mL/min/kg

Question: What about the “Plasma concentration” value ([2]; I-1 1.10 mg/kg i.v., 0.25 h, individual rats R04-R06, 1.1 mg/kg) of the same compound?
Answer: 15.7 ng/mL and 16.9 ng/mL

Question: What about the “Plasma concentration” value ([2]; I-1 1.10 mg/kg i.v., 1 h, individual rats R04-R06, 1.1 mg/kg) of the same compound?
Answer: 0.835 ng/mL and 0.354 ng/mL and 0.298 ng/mL

Question: What about the “Plasma concentration (ng/mL)” value ([2]; I-1 1.10 mg/kg i.v., 4 h, individual rats R04-R06) of the same compound?
Answer: BLQ (BLQ denotes below the lower limit of quantitation (0.5 ng/mL))

Question: What about the “AUC0-tlast” value [2, 4] of the same compound?
Answer: 10.9 ng·h/mL and 12.0 ng·h/mL

Question: What about the “Apparent t1/2” value [2, 4] of the same compound?
Answer: 8.22 min and 7.74 min

Question: What about the concentration at 0.25 h ([2]; 1.1 mg/kg, I-1 1.10 mg/kg i.v., 0.25 h, Mean ± SD) of the same compound?
Answer: 16.4 ± 0.624 ng/mL

Question: What about the concentration at 0.25 h ([2]; 1.1 mg/kg, I-1 1.10 mg/kg i.v., 0.25 h, individual rats R04-R06) of the same compound?
Answer: 16.6 ng/mL

Question: And the concentration at 1 h ([2]; 1.1 mg/kg, I-1 1.10 mg/kg i.v., 1 h, Mean ± SD)?
Answer: 0.496 ± 0.295 ng/mL

Question: And the half-life [2, 5]?
Answer: 8.82 ± 1.44 min

Question: What about the AUC(0-t) [2, 5] of the same compound?
Answer: 11.3 ± 0.587 ng·h/mL

Question: And the half-life [2, 6]?
Answer: 10.4 min

Question: And the AUC(0-t) [2, 6]?
Answer: 11.1 ng·h/mL

Question: What about the “Predicted hepatic CL” value [3] of the same compound?
Answer: 81.96 mL/min/kg

Question: What about the microsomal CLint at 2 μM [3] of the same compound?
Answer: 210 µL/min/mg

Question: What about the half-life at 2 μM [3] of the same compound?
Answer: 6.61 min

Question: And the CLint scaled at 2 μM [3]?
Answer: 918 mL/min/kg

Question: With `CCN(CC)CCc1c[nH]c2ccc(SC)cc12` [Compound I-12, N,N-Diethyl-2-(5-(methylthio)-1H-indol-3-yl)ethan-1-amine] as the compound, how does the “Predicted hepatic CL” value [1] read?
Answer: 30.14 mL/min/kg

Question: And the microsomal CLint at 2 μM [1]?
Answer: 37 µL/min/mg

Question: And the half-life at 2 μM [1]?
Answer: 37.4 min

Question: What about the CLint scaled at 2 μM [1] of the same compound?
Answer: 66.4 mL/min/kg

Question: And the “Plasma concentration” value ([2]; I-12 1.2 mg/kg i.v., 0.25 h, individual rats R01-R03, 1.2 mg/kg)?
Answer: 53.6 ng/mL and 72.4 ng/mL and 30.1 ng/mL

Question: What about the “Plasma concentration” value ([2]; I-12 1.2 mg/kg i.v., 1 h, individual rats R01-R03, 1.2 mg/kg) of the same compound?
Answer: 36.4 ng/mL and 29.7 ng/mL

Question: And the “Plasma concentration” value ([2]; I-12 1.2 mg/kg i.v., 4 h, individual rats R01-R03, 1.2 mg/kg)?
Answer: 3.88 ng/mL and 2.55 ng/mL and 6.48 ng/mL

Question: What about the “AUC0-tlast” value [2, 7] of the same compound?
Answer: 97.8 ng·h/mL and 75.7 ng·h/mL

Question: And the “Apparent t1/2” value [2, 7]?
Answer: 46.7 min

Question: And the concentration at 0.25 h ([2]; 1.2 mg/kg, I-12 1.2 mg/kg i.v., 0.25 h, Mean ± SD)?
Answer: 52 ± 21.2 ng/mL

Question: And the concentration at 1 h ([2]; 1.2 mg/kg, I-12 1.2 mg/kg i.v., 1 h, Mean ± SD)?
Answer: 31.2 ± 4.6 ng/mL

Question: And the concentration at 1 h ([2]; 1.2 mg/kg, I-12 1.2 mg/kg i.v., 1 h, individual rats R01-R03)?
Answer: 27.6 ng/mL

Question: What about the concentration at 4 h ([2]; 1.2 mg/kg, I-12 1.2 mg/kg i.v., 4 h, Mean ± SD) of the same compound?
Answer: 4.3 ± 2 ng/mL

Question: And the AUC(0-t) ([2]; 1.2 mg/kg, I-12 1.2 mg/kg i.v., Mean ± SD)?
Answer: 84.7 ± 11.6 ng·h/mL

Question: What about the half-life [2, 8] of the same compound?
Answer: 60.6 min

Question: And the AUC(0-t) [2, 8]?
Answer: 80.6 ng·h/mL

Question: And the half-life ([2]; 1.2 mg/kg, I-12 1.2 mg/kg i.v., mean (n = 2))?
Answer: 53.6 min

Question: And the “Predicted hepatic CL” value [3]?
Answer: 82.50 mL/min/kg

Question: What about the microsomal CLint at 2 μM [3] of the same compound?
Answer: 226 µL/min/mg

Question: What about the half-life at 2 μM [3] of the same compound?
Answer: 6.13 min

Question: And the CLint scaled at 2 μM [3]?
Answer: 990 mL/min/kg

Question: With `CCN(C)CCc1c[nH]c2ccc(SC)cc12` [Compound I-13, N-Ethyl-N-methyl-2-(5-(methylthio)-1H-indol-3-yl)ethan-1-amine] as the compound, how does the “Predicted hepatic CL” value [1] read?
Answer: 42.35 mL/min/kg

Question: And the microsomal CLint at 2 μM [1]?
Answer: 102 µL/min/mg

Question: What about the half-life at 2 μM [1] of the same compound?
Answer: 13.7 min

Question: And the CLint scaled at 2 μM [1]?
Answer: 182 mL/min/kg

Question: And the “Plasma concentration” value ([2]; I-13 1.14 mg/kg i.v., 0.25 h, individual rats R04-R06, 1.14 mg/kg)?
Answer: 45.7 ng/mL and 86.5 ng/mL and 113 ng/mL

Question: What about the “Plasma concentration” value ([2]; I-13 1.14 mg/kg i.v., 1 h, individual rats R04-R06, 1.14 mg/kg) of the same compound?
Answer: 46.7 ng/mL and 29.7 ng/mL

Question: And the “Plasma concentration” value ([2]; I-13 1.14 mg/kg i.v., 4 h, individual rats R04-R06, 1.14 mg/kg)?
Answer: 3.51 ng/mL and 1.11 ng/mL and 0.449 ng/mL

Question: What about the “AUC0-tlast” value [2, 9] of the same compound?
Answer: 109 ng·h/mL and 103 ng·h/mL

Question: What about the “Apparent t1/2” value [2, 9] of the same compound?
Answer: 28.6 min

Question: What about the concentration at 0.25 h ([2]; 1.14 mg/kg, I-13 1.14 mg/kg i.v., 0.25 h, Mean ± SD) of the same compound?
Answer: 81.7 ± 33.9 ng/mL

Question: What about the concentration at 1 h ([2]; 1.14 mg/kg, I-13 1.14 mg/kg i.v., 1 h, Mean ± SD) of the same compound?
Answer: 42.9 ± 11.7 ng/mL

Question: What about the concentration at 1 h ([2]; 1.14 mg/kg, I-13 1.14 mg/kg i.v., 1 h, individual rats R04-R06) of the same compound?
Answer: 52.2 ng/mL

Question: What about the concentration at 4 h ([2]; 1.14 mg/kg, I-13 1.14 mg/kg i.v., 4 h, Mean ± SD) of the same compound?
Answer: 1.69 ± 1.61 ng/mL

Question: And the AUC(0-t) ([2]; 1.14 mg/kg, I-13 1.14 mg/kg i.v., Mean ± SD)?
Answer: 105 ± 3.64 ng·h/mL

Question: What about the half-life [2, 10] of the same compound?
Answer: 35.1 min

Question: And the AUC(0-t) [2, 10]?
Answer: 102 ng·h/mL

Question: And the half-life ([2]; 1.14 mg/kg, I-13 1.14 mg/kg i.v., mean (n = 2))?
Answer: 31.9 min

Question: And the “Predicted hepatic CL” value [3]?
Answer: >84.35 mL/min/kg

Question: What about the microsomal CLint at 2 μM [3] of the same compound?
Answer: > 307 µL/min/mg

Question: And the half-life at 2 μM [3]?
Answer: < 4.51 min

Question: What about the CLint scaled at 2 μM [3] of the same compound?
Answer: > 1340 mL/min/kg
